Data reported in patent US20240307434A1, “USE OF LUTETIUM SALT COMPOUNDS FOR ANTIVIRAL EFFECT” (priority 2022, published 2024).

Tested on: Adenovirus, Poliovirus, Herpes Simplex Type 1 and Herpes Simplex Type 2, Coronavirus and Norovirus strains

lutetium Borate [LuBO3]
antiviral efficacy: exhibit antiviral efficacy
